These results are taken from ChEMBL document CHEMBL2034937, “Novel 3-Oxazolidinedione-6-aryl-pyridinones as Potent, Selective, and Orally Active EP3 Receptor Antagonists” (ACS Med Chem Lett, 2010).

≈ marks a conversion by molar mass, not a printed value.

The nature of data set [1]: Half life in Sprague-Dawley rat at 1 mg/kg, iv. It counts as ADME, organism-based. Also noted: dose 1 mg/kg, route intravenous. The note with it: in vivo.
Data set [2] deals with Prostaglandin E2 receptor EP4 subtype (Homo sapiens, UniProt P35408). Description: Binding affinity at human EP4 receptor.
Data set [3] addresses Voltage-gated inwardly rectifying potassium channel KCNH2 (Homo sapiens, UniProt Q12809). Description: Inhibition of human ERG.
Data set [4] in a line: Drug metabolism in rat liver S9 fraction assessed as NADPH-dependent glutathione conjugate level at 10 uM after 30 mins by LC-MS/MS analysis. The class given is ADME, subcellular. As to conditions: s9, 0.5 h; call rule not given here.
Data set [5] concerns the target Prostaglandin E2 receptor EP2 subtype (Homo sapiens, UniProt P43116). Description: Antagonist activity against human EP2 receptor expressed in CHO-K1 cells assessed as inhibition of cAMP production after 4 hrs by FRET signal in LANCE assay. It counts as functional, cell-based.
Data set [6] deals with T1, Prostaglandin E2 receptor EP1 subtype (Homo sapiens, UniProt P34995).
T1 sequence (P34995 whole entry): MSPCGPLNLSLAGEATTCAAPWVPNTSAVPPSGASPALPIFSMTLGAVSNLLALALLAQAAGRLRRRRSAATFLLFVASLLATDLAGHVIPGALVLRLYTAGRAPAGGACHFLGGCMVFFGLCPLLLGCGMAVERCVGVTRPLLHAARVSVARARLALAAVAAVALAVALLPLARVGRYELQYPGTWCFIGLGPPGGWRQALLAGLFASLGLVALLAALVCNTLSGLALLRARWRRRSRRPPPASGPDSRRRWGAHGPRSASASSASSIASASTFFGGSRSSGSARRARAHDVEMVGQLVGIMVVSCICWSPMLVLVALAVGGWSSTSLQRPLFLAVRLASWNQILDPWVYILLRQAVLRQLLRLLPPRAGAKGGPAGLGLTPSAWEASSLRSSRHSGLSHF
Description: Antagonist activity at EP1 receptor in human U2OS cells expressing Gqi5 assessed as inhibition of PGE2-induced response after 24 hrs by FLIPR assay. The class given is functional, cell-based.

For data set [7], the target named is Prostaglandin F2-alpha receptor (Homo sapiens, UniProt P43088). Description: Antagonist activity at FP receptor in human U2OS cells expressing Gqi5 assessed as inhibition of PGE2-induced response after 48 hrs by FLIPR assay. It counts as functional, cell-based.
Data set [8] in a line: Drug metabolism in human liver S9 fraction assessed as NADPH-dependent glutathione conjugate level at 10 uM after 30 mins by LC-MS/MS analysis. The note with it: s9, 0.5 h. It counts as ADME, subcellular.
Another data set addresses Cytochrome P450 2D6 (Homo sapiens, UniProt P10635). Description: Inhibition of CYP2D6. It counts as ADME.
Data set [9] addresses T2, Prostaglandin G/H synthase 2 (Rattus norvegicus, UniProt P35355).
T2 sequence (P35355 whole entry): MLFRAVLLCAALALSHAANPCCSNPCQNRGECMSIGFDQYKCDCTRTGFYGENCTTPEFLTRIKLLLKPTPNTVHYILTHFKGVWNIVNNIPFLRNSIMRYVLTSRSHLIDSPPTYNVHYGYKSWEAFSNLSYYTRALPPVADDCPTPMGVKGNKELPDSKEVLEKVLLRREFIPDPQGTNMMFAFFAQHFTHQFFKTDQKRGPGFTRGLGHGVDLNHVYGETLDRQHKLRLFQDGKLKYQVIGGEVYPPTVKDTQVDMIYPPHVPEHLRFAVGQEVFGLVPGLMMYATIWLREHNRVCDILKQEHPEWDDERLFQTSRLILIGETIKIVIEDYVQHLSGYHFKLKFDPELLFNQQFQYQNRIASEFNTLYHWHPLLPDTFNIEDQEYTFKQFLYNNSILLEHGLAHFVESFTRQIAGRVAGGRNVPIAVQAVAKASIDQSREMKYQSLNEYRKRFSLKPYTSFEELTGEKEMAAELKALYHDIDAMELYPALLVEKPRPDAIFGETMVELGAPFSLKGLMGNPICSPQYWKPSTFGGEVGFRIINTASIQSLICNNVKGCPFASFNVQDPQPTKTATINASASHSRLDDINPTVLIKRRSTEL
Description: Inhibition of COX2 in rat whole blood assessed as decreased PGE2 production. The class given is tissue-based.

A short description of data set [10]: Aqueous solubility of the compound. It counts as physicochemical. As to conditions: buffer.
The target in a further data set is Cytochrome P450 2C19 (Homo sapiens, UniProt P33261). Description: Inhibition of CYP2C19. It counts as ADME.
The target in data set [11] is T3, Prostaglandin D2 receptor (Homo sapiens, UniProt Q13258).
T3 sequence (Q13258 whole entry): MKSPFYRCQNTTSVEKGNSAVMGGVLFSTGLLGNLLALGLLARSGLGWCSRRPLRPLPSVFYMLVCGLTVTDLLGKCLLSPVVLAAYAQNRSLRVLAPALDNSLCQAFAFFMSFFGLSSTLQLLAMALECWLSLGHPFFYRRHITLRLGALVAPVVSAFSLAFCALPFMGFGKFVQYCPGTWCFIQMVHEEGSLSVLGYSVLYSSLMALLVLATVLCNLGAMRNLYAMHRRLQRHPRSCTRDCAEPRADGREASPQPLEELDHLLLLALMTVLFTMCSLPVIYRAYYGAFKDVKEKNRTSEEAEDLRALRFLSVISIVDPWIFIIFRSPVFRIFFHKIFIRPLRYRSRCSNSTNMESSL
Description: Binding affinity at human DP receptor.

In data set [12] the target is T4, Prostaglandin E2 receptor EP3 subtype (Homo sapiens, UniProt P43115).
T4 sequence (P43115 whole entry): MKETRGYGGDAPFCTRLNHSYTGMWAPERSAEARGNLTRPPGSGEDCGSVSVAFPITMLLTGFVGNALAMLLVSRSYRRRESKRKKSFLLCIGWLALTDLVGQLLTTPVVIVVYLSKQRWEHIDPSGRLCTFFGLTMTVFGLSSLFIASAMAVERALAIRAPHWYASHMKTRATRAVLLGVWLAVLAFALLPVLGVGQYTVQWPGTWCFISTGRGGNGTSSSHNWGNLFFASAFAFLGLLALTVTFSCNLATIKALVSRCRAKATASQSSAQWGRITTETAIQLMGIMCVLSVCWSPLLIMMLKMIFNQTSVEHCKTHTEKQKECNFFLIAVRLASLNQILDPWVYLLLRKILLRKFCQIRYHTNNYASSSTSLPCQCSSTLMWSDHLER
Description: Binding affinity to human EP3.

In a further data set the test system is Rattus norvegicus. Description: Dose-normalized AUC in Sprague-Dawley rat at 2 mg/kg, po. The class given is ADME, organism-based. Also on record: dose 2 mg/kg, route oral. As to conditions: in vivo.
Data set [13] in a line: Clearance in Sprague-Dawley rat at 1 mg/kg, iv and 2 mg/kg, po. It counts as ADME, organism-based. The note with it: in vivo.

Sequence of Prostaglandin E2 receptor EP4 subtype (P35408 whole entry): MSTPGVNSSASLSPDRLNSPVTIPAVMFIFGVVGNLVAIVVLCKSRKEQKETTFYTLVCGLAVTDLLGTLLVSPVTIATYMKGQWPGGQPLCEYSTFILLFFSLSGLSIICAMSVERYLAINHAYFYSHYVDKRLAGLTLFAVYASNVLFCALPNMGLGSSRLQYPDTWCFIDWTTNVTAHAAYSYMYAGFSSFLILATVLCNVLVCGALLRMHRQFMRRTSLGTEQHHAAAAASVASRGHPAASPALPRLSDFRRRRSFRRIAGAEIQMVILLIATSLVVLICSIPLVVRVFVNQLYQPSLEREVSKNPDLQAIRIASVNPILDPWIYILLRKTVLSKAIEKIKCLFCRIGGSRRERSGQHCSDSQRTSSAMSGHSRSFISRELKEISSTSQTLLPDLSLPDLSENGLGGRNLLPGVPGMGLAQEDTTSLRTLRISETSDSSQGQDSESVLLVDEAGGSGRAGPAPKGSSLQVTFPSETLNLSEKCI
Sequence of Cytochrome P450 2D6 (P10635 whole entry): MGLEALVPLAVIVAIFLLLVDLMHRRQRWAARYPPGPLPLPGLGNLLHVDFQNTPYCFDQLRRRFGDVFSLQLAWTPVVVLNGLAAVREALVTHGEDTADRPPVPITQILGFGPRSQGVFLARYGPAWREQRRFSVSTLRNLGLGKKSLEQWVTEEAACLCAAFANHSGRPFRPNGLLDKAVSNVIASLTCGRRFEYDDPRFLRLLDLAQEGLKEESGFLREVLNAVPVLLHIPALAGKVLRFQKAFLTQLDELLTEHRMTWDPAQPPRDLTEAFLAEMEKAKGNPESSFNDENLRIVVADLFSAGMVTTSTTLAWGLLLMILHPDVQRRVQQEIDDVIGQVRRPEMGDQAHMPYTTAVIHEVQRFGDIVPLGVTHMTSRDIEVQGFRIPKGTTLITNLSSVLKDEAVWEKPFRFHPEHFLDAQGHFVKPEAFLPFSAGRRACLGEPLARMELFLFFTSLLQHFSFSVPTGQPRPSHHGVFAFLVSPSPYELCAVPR
Sequence of Voltage-gated inwardly rectifying potassium channel KCNH2 (Q12809 whole entry): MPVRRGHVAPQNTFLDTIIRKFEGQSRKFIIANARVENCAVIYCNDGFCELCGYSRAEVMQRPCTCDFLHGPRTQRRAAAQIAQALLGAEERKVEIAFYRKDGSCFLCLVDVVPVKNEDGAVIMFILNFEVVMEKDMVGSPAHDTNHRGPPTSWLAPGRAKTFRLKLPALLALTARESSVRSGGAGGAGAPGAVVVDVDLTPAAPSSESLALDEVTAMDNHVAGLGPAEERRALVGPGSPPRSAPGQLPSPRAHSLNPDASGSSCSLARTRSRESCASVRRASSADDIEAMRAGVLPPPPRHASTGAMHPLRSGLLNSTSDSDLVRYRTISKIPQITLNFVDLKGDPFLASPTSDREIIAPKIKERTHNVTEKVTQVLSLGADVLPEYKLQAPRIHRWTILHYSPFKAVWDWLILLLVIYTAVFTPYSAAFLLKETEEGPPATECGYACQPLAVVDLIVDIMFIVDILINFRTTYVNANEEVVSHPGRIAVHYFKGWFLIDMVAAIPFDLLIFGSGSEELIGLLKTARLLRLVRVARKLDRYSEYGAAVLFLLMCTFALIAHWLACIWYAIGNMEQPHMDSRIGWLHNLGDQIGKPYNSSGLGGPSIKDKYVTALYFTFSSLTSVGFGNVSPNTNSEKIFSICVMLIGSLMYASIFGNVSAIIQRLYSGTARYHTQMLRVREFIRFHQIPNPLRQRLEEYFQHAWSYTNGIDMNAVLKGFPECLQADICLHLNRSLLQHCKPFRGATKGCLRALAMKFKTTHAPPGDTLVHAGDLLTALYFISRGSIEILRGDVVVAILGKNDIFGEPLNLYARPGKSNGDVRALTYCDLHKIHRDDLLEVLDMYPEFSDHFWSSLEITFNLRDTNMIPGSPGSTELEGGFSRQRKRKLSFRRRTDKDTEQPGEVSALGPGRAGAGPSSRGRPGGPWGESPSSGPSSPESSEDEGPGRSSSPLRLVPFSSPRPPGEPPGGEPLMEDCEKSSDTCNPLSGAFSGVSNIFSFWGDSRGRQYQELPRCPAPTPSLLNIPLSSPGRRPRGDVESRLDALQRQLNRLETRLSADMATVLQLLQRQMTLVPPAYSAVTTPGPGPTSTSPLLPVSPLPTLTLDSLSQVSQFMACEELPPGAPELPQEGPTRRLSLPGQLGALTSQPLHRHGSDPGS
Sequence of Prostaglandin E2 receptor EP2 subtype (P43116 whole entry): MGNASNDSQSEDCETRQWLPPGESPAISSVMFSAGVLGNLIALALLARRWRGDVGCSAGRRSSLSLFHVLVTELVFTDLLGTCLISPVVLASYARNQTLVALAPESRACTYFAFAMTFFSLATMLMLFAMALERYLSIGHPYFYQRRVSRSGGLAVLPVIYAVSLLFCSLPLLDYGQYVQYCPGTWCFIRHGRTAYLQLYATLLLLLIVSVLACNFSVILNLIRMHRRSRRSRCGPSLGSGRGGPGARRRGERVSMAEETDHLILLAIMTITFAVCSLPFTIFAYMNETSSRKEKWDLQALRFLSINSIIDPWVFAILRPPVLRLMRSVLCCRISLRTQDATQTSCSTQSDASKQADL
Sequence of Cytochrome P450 2C19 (P33261 whole entry): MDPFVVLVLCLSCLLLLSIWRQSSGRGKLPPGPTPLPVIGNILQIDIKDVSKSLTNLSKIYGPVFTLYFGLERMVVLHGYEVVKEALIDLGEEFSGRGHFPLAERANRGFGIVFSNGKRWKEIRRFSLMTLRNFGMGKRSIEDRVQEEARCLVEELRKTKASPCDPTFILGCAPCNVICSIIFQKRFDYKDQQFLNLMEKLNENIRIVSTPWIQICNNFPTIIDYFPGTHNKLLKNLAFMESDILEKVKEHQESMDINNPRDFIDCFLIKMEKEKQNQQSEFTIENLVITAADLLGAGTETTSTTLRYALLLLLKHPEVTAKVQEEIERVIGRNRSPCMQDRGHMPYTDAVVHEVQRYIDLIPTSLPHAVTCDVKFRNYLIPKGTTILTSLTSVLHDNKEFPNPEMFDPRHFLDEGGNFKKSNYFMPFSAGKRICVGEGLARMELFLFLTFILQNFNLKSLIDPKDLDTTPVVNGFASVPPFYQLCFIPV
Sequence of Prostaglandin F2-alpha receptor (P43088 whole entry): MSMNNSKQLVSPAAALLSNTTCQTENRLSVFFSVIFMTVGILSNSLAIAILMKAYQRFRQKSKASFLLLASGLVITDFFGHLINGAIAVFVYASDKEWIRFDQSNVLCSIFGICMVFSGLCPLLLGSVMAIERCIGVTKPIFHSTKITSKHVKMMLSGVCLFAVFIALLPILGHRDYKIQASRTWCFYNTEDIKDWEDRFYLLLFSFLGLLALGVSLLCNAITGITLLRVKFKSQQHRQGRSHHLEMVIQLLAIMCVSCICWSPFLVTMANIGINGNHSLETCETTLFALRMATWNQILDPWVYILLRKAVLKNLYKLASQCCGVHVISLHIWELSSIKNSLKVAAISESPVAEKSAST

Turning to `CC(C)C1(c2ccc(-c3ccc4ccccc4c3)[nH]c2=O)OC(O)=NC1=O` (stereo unspecified), the half-life in data set [1] is 4 h. In addition, the IC50 in data set [2] is over 50.1 µM; in data set [3], over 50.1 µM; in [5], over 50.1 µM; in data set [7], over 50.1 µM; against Cytochrome P450 2D6, over 50.1 µM; in data set [9] it was over 100 µM. Further, the IC50 (at Cytochrome P450 2C19; in data set [11]) was over 50.1 µM in each case. In addition, the Drug metabolism entry is given as “Active” in [4] and “Not Active” in data set [8]. For the same compound, the values for the inhibition constant Ki in data set [6] and in data set [12] were over 50.1 µM and 0.00501 µM, respectively. Also, the solubility in data set [10] turned out to be 193 µM (≈ 69.9 µg/mL). Further, the AUC/dose in the data set on Rattus norvegicus was found to be 5.5 µg·h/mL/mg/kg. Also, the clearance in [13] was determined as 2.6 mL/min/kg.
